System: male Hartley guinea pigs
Test: Antitussive effect test: capsaicin-induced cough in guinea pigs with SO2-induced respiratory tract inflammation
Format: in vivo, guinea pig
Settings: for Frequency of cough: capsaicin 10^-6 mol/l spray, coughs counted over 15 minutes, control group 22.4 ± 0.8; for Antitussive effect (in words): summary of Table 1, administered alone or in combination
Description: The synergetic effect of using fudosteine and an antitussive compound in combination was examined according to the following method.
Five male Hartley guinea pigs for one group, each having a weight of 300-400 g, were used as test animals. According to the method of Miyata et al. (Arch. Int. Pharmacodyn. Ther., vol. 304, p. 277, 1990), the guinea pigs were exposed to SO2 gas using an exposure apparatus for two hours a day in eight consecutive days to cause respiratory tract inflammation. The samples of which the components and dose are shown in Table 1 were orally administered before exposure to SO2 gas once a day in eight consecutive days since the start date of exposure. The guinea pigs were confined in a chamber without being anesthetized. On the date following the last SO2 exposure date, capsaicin (10^−6 mol/l) was sprayed over the chamber for two minutes using a ultrasonic nebulizer (TUR-3200, Nihon Kohden Corporation) to cause cough in the guinea pigs. […] The frequency of cough during this period was counted.

Row | SMILES | Frequency of cough (dextromethorphan 150 mg/kg orally once a day for 8 days) | Frequency of cough (dextromethorphan 300 mg/kg orally once a day for 8 days) | Antitussive effect (in words) | Frequency of cough (fudosteine 30 mg/kg orally once a day for 8 days)
1 | COc1ccc2c(c1)[C@]13CCCC[C@@H]1[C@H](C2)N(C)CC3 [Dextromethorphan] | 13.6 ± 1.0 | 10.2 ± 0.6 ^$ | exhibited an antitussive effect | 
2 | N[C@@H](CSCCCO)C(=O)O [Fudosteine, S-(3-hydroxypropyl)-L-cysteine] |  |  | did not exhibit an antitussive effect | 22.6 ± 1.1
